Assay results from US6479550B1, “α-sulfenimino acid derivatives” (priority 1999, dated 2002).

What was measured:
Plasmopara viticola = experiment: D-1: Action against Plasmopara viticola on vines (residual-protective and residual-curative action); type: in vivo; details: vine seedlings, spray mixture 0.02% active ingredient; evaluated after 6 days at 95-100% relative humidity and 20° C.
Procedure: D-1: Action against Plasmopara viticola on Vines a) Residual-protective Action
Vine seedlings are sprayed at the 4- to 5-leaf stage with a spray mixture (0.02% active ingredient) prepared from a wettable powder formulation of the test compound. After 24 hours, the treated plants are infected with a sporangia suspension of the fungus. Fungus infestation is evaluated after incubation for 6 days at 95-100% relative humidity and 20° C. […]
b) Residual-curative Action
Vine seedlings are infected at the 4- to 5-leaf stage with a sporangia suspension of the fungus. After incubation for 24 hours in a humidity chamber at 95-100% relative humidity and 20° C., the infected plants are dried and sprayed with a spray mixture (0.02% active ingredient) prepared from a wettable powder formulation of the test compound. After the spray coating has dried, the treated plants are placed in the humidity chamber again. Fungus infestation is evaluated 6 days after infection.

Phytophthora [1] = experiment: D-2: Action against Phytophthora on tomato plants (residual-protective and systemic action); type: in vivo; details: spray mixture 0.02% active ingredient, sprayed or watered, evaluated 4-5 days after infection at 90-100% relative humidity and 20° C.
Procedure: D-2: Action Against Phytophthora on Tomato Plants
(§1) a) Residual-protective Action
(§2) After a cultivation period of 3 weeks, tomato plants are sprayed with a spray mixture (0.02% active ingredient) prepared from a wettable powder formulation of the test compound. After 48 hours, the treated plants are infected with a sporangia suspension of the fungus. Fungus infestation is evaluated after incubation of the infected plants for 5 days at 90-100% relative humidity and 20° C.
as §2, with “watered” for “sprayed”, “ingredient based on the volume of the soil)” for “ingredient)”, “compound. […]” for “compound.”, “96” for “48”, “4” for “5”

Phytophthora [2] = experiment: D-3: Action against Phytophthora on potato plants (residual-protective and systemic action); type: in vivo; details: potato plants (Bintje variety), spray mixture 0.02% active ingredient, sprayed or watered; evaluated after 4 days at 90-100% relative humidity and 20° C.
Procedure: D-3: Action Against Phytophthora on Potato Plants
as §1
(§3) 2-3 week old potato plants (Bintje variety) are sprayed with a spray mixture (0.02% active ingredient) prepared from a wettable powder formulation of the test compound. After 48 hours, the treated plants are infected with a sporangia suspension of the fungus. Fungus infestation is evaluated after incubation of the infected plants for 4 days at 90-100% relative humidity and 20° C.
as §3, with “watered” for “sprayed”, “ingredient based on the volume of the soil)” for “ingredient)”, “compound. […]” for “compound.”

SMILES | Fungus infestation (fungicidal action against Plasmopara viticola on vines) (Plasmopara viticola) | melting point [°C] | Fungus infestation (action against Phytophthora on tomato plants) (Phytophthora [1]) | Fungus infestation (fungicidal action against Phytophthora on potatoes) (Phytophthora [2])
COc1ccc(CCNC(=O)C(=NSC)c2ccc(-c3ccc(C(C)(C)C)cc3)cc2)cc1OC [Compound 11.351, 2-[4-(4-tert.-butyl-phenyl)-phenyl]-N-[2-(3,4-di-methoxy-phenyl)-ethyl]-2-methylthioimino-acetamide] | completely inhibit fungal infestation | 45 to 52 |  | 
C#CCOc1ccc(CCNC(=O)C(=NSC)c2ccc(Cl)cc2)cc1OC [Compound 14.001, 2-(4-chloro-phenyl)-N-[2-(3-methoxy-4-prop-2-ynyloxy-phenyl)-ethyl]-2-methylthioimino-acetamide] | completely inhibit fungal infestation |  | completely inhibit fungal infestation | completely inhibit fungal infestation
COc1ccc(CCNC(=O)C(=NSC)c2ccc(-c3ccc(C)cc3)cc2)cc1OC [Compound 11.171, 2-[4-(4-methyl-phenyl)-phenyl]-N-[2-(3,4-di-methoxy-phenyl)-ethyl]-2-methylthioimino-acetamide] | completely inhibit fungal infestation | 40 to 47 |  | 
C#CCOc1ccc(CCNC(=O)C(=NSC)c2ccc3ccccc3c2)cc1OC [Compound 14.121, N-[2-(3-methoxy-4-prop-ynyloxy-phenyl)-ethyl]-2-naphthalen-2-yl-2-methylthioimino-2-acetamide] | completely inhibit fungal infestation |  |  | 
C#CCOc1ccc(CCNC(=O)C(=NSC)c2ccc(F)cc2)cc1OC [Compound 14.071, 2-(4-fluoro-phenyl)-N-[2-(3-methoxy-4-prop-2-ynyloxy-phenyl)-ethyl]-2-methylthioimino-acetamide] | completely inhibit fungal infestation |  |  | 
C#CCOc1ccc(CCNC(=O)C(=NSC)c2ccc(Cl)c(Cl)c2)cc1OC [Compound 14.011, 2-(3,4-dichloro-phenyl)-N-[2-(3-methoxy-4-prop-2-ynyloxy-phenyl)-ethyl]-2-methylthioimino-acetamide] | completely inhibit fungal infestation |  | completely inhibit fungal infestation | completely inhibit fungal infestation
C#CCOc1ccc(CCNC(=O)C(=NSC)c2ccc(Br)cc2)cc1OC [Compound 14.031, 2-(4-bromo-phenyl)-N-[2-(3-methoxy-4-prop-2-ynyloxy-phenyl)-ethyl]-2-methylthioimino-acetamide] | completely inhibit fungal infestation |  | completely inhibit fungal infestation | 
CC#COc1ccc(CCNC(=O)C(=NSC)c2ccc(C)cc2)cc1OC [Compound 14.041, N-[2-(3-methoxy-4-prop-ynyloxy-phenyl)-ethyl]-2-methylthioimino-2-(4-tolyl)-acetamide] | completely inhibit fungal infestation |  | completely inhibit fungal infestation | completely inhibit fungal infestation
C#CCOc1ccc(CCNC(=O)C(=NSC)c2ccc(OC)cc2)cc1OC [Compound 14.051, 2-(4-methoxy-phenyl)-N-[2-(3-methoxy-4-prop-2-ynyloxy-phenyl)-ethyl]-2-methylthioimino-acetamide] | completely inhibit fungal infestation |  |  | 
